SMILES strings stand for the structures.

These results are taken from patent US20070179716A1, “Crystal structure of cytochrome P450 3A4 and uses thereof” (ASTEX THERAPEUTICS LIMITED, priority 2001, published 2007).

Data set [1] deals with human cytochrome P450 3A4 (Homo sapiens, UniProt P08684). On the procedure: 3A4 protein produced essentially as described in “Protein purification (3)” above was used to obtain co-crystals with metyrapone, apart from replacing the CM-Sepharose column with a CM-fast flow column. Co-crystals of metyrapone were generated using crystallisation conditions of 0.1M Hepes pH 7.5, 0.25M sodium chloride, 5% MPD, 50 mM Calcium chloride, 10% (w/v) PEG 4000, and soaking the crystals in 0.5 mM metyrapone for 4 hours. […] The Fe—N bond distance was loosely restrained to […] during the refinement.
3A4 protein produced essentially as described in “Protein purification (3)” above was used to obtain co-crystals with progesterone, apart from replacing the CM-Sepharose column with a CM-fast flow column. Co-crystals of progesterone were obtained by co-crystallisation using 0.5 mM progesterone in 2.5% ethanol and crystallisation conditions of 0.1M HEPES pH 7.5, 0.25M potassium chloride, 12% (w/v) PEG 4000, 5% (w/v) MPD, 25 mM calcium chloride.
Molecular replacement was performed using the program AMORE and using the CYP3A4 crystal structure described in Table 1 as the search model. […] This molecular replacement model was then used as a starting model for subsequent refinement of other datasets from crystal form 2.
Apo (compound-free) crystals of 3A4 were obtained by setting up a 1:1 ratio of protein (at 36.5 mg/ml in buffer, 10 mM KPi, pH7.2, 20% glycerol, 1 mM EDTA, 2 mM DTT, 0.5M KCl) against 0.1 M Hepes-NaOH pH 7.5, 1.44 M sodium citrate.
Apo (compound-free) crystals of 3A4 were generated by setting up a 1:1 ratio of protein (at 36.5 mg/ml in buffer, 10 mM KPi, pH7.2, 20% glycerol, 1 mM EDTA, 2 mM DTT, 0.5M KCl) against 0.1M Hepes-NaOH pH 7.5, 1.424M Sodium citrate. The resulting crystals were soaked for 18 hours in a mother liquor containing 5 mM fluconazole, and then frozen using 0.1M Hepes-NaOH pH7.5, 1.4M sodium citrate, 15% glycerol.

The target in another data set is T1, CYP3A4 (Homo sapiens, UniProt P08684).
T1 construct: made in house; host or cells: E. coli XL1 Blue
Nature of the data set: UV/visible spectroscopy of inhibitor binding in solution. The settings on record: UV/visible spectroscopic data (not shown).

Chain of human cytochrome P450 3A4 (P08684 with tags, fused parts or gaps): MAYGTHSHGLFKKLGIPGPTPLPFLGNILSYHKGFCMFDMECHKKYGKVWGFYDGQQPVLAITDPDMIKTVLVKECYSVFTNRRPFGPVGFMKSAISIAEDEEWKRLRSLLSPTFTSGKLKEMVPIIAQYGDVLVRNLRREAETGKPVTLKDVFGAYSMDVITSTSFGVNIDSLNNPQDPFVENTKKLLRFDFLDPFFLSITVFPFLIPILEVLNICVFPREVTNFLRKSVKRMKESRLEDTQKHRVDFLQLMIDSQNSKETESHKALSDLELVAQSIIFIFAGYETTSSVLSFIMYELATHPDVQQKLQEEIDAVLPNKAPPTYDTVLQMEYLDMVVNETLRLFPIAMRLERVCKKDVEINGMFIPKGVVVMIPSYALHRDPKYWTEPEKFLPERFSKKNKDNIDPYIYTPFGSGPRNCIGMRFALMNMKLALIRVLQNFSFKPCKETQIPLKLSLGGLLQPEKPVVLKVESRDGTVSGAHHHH
T1 sequence (P08684 with tags, fused parts or gaps): as above

As for `OC(Cn1cncn1)(Cn1cncn1)c1ccc(F)cc1F` [fluconazole], in data set [1], the “distance of the compound (nearest atom) from the haem iron” value is reported as “approximately 14 Å” and the “separation of the two bound copies of the compound” value is “approximately 7 Å”.

As for `CC(C)(C(=O)c1cccnc1)c1cccnc1` [metyrapone], in data set [1], the “binding position of the compound in the 3A4 crystal structure” value was “bound directly to the haem iron via a pyridine nitrogen” and the “volume occupied by the molecule in the active site” value was 50 Å^3. In addition, at CYP3A4, the “binding mode in solution” value is “liganded to the haem”.

On to `CC(=O)[C@H]1CC[C@H]2[C@@H]3CCC4=CC(=O)CC[C@]4(C)[C@H]3CC[C@]12C` [progesterone], for which the “binding position of the compound in the 3A4 crystal structure” value in data set [1] is “bound at a peripheral site very close to the Phe-cluster”.
